This is an account of results in ChEMBL document CHEMBL1201862, “PubChem BioAssay data set” (2004).

Molecules are shown by their SMILES.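 Method: 48-hour compound exposure of cells in 96-well plates, five concentrations, linear interpolation of endpoints. GI50 is the concentration that inhibits growth by half.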 Active and inactive are the calls of the source. Rule as the data show it: active = GI50 up to about 1.1 µM and inactive = higher. Where only a bound is given, the exact number is not on record here.

Among the test systems are SF-295; CAKI-1; M14; DMS-114; SW-620; CCRF-CEM; SF-539; OVCAR-8; HOP-62; RPMI-8226; TK-10; EKVX; HCT-15; SF-268; HT-29; 786-0; Malme-3M; NCI-H522; T47D; Hs-578T.
What all share (assay): inhibition of tumour cell growth, NCI panel, 48 h

For the compound `O=c1[nH]cnc2c1nnn2C1C=C(CO)C(O)C1O` (stereo not drawn), the GI50 was > 100 µM (inactive) in the test on SF-295; > 100 µM (inactive) in the test on CAKI-1; > 100 µM (inactive) with M14; 59.2 µM (inactive) with DMS-114; > 10 µM (inactive) in the test on SW-620; > 100 µM (inactive) in the test with CCRF-CEM. The GI50 in the test on SF-539, in the test with OVCAR-8, in the test on HOP-62, in the test with RPMI-8226, in the test on TK-10 and in the test on EKVX was > 100 µM (inactive) each time. The GI50 was > 100 µM in the test with HCT-15, 74.1 µM (inactive) with SF-268, > 100 µM (inactive) with HT-29 and > 100 µM (inactive) in the test on 786-0.
With `C[C@@H]1CC[C@@]2(C)OC(c3ccccc3)[C@H](CO)N2C1=O` (stereo partly drawn), the GI50 with SF-295, in the test on Malme-3M, in the test with CAKI-1, with DMS-114, in the test with SW-620 and in the test on SF-539 was > 100 µM (inactive) throughout. Also, the GI50 is > 100 µM (inactive) in the test on OVCAR-8; > 100 µM (inactive) in the test with HOP-62; > 100 µM (inactive) with RPMI-8226; > 100 µM (inactive) in the test with TK-10; > 100 µM (inactive) in the test on EKVX; > 100 µM with HCT-15. Further, the GI50 in the test with SF-268, with HT-29 and with 786-0 was > 100 µM (inactive) each time.
Take `CCCC(=O)c1c(NOC2OC(COC(C)=O)C(OC(C)=O)C(OC(C)=O)C2OC(C)=O)nc(OC)n(C)c1=O` (stereo not drawn): the GI50 in the test on SF-295, in the test with M14, in the test with DMS-114, with SW-620, in the test on CCRF-CEM and in the test on SF-539 was > 100 µM (inactive) each time. Besides, the GI50 with OVCAR-8 is > 100 µM (inactive); with HOP-62, > 100 µM (inactive); with TK-10 it was > 100 µM (inactive); in the test on NCI-H522 it was > 100 µM (inactive); with EKVX, > 100 µM (inactive); with HCT-15 it was > 100 µM. The GI50 in the test on SF-268, with HT-29 and with 786-0 was > 100 µM (inactive) in each case.
Consider `COc1cc2c(Cc3cc(OCc4ccccc4)ccc3N)nccc2c(OC)c1OC`, for which the GI50 in the test on SF-295, in the test with Malme-3M, in the test with M14, in the test with DMS-114, with SW-620 and with CCRF-CEM was > 10 µM (inactive) in each case. Besides, the GI50 in the test with SF-539, in the test with OVCAR-8, in the test with HOP-62, in the test on RPMI-8226, in the test on TK-10 and in the test with NCI-H522 was > 10 µM (inactive) each time. Besides, the GI50 in the test on EKVX is > 10 µM (inactive); in the test on HCT-15, > 10 µM; in the test on SF-268, > 10 µM (inactive); with HT-29, > 10 µM (inactive); in the test with 786-0, > 10 µM (inactive).
Turning to `Cc1cc2c(c(C#N)c1C)NC(=O)CCC2=O`, the GI50 in the test on SF-295, in the test with CAKI-1, with M14, with DMS-114, with SW-620 and in the test with CCRF-CEM was > 100 µM (inactive) each time. In addition, the GI50 was > 100 µM (inactive) in the test on SF-539; > 100 µM (inactive) in the test with OVCAR-8; > 100 µM (inactive) in the test with HOP-62; > 100 µM (inactive) in the test on RPMI-8226; > 100 µM (inactive) with EKVX; > 100 µM with HCT-15. Further, the GI50 in the test on HT-29 and in the test with 786-0 was > 100 µM (inactive) each time.
As to `C[C@@H]1C[C@@H]2C(=O)N(c3ccccc3)C(=O)[C@@H]2c2[nH]c3ccc(Br)cc3c21`, the GI50 with SF-295 was 32.4 µM (inactive); in the test with Malme-3M it was 39.4 µM (inactive); in the test with CAKI-1 it was 27.4 µM (inactive); with M14 it was 75.2 µM (inactive); in the test with DMS-114, 53 µM (inactive); with SW-620 it was 35.5 µM (inactive). For the same compound, the GI50 is > 100 µM (inactive) with CCRF-CEM; 65.8 µM (inactive) in the test with SF-539; 21.8 µM (inactive) in the test on OVCAR-8; 23.3 µM (inactive) with HOP-62; 68.9 µM (inactive) in the test on TK-10; 24 µM (inactive) with NCI-H522. Moreover, the GI50 was 36.9 µM (inactive) in the test with EKVX, 34.3 µM in the test on HCT-15, 41.5 µM (inactive) in the test with SF-268 and 39.2 µM (inactive) in the test with 786-0.
In the case of `NC(=O)/C(=N\NC(=O)C[n+]1ccccc1)C1NC(=O)NC1=O` (stereo not drawn), the GI50 in the test on SF-295 was > 100 µM (inactive); in the test on Malme-3M, > 100 µM (inactive); with CAKI-1, > 100 µM (inactive); in the test on M14 it was > 100 µM (inactive); in the test on DMS-114 it was > 100 µM (inactive); in the test on SW-620, 33.6 µM (inactive). The GI50 with CCRF-CEM, in the test with SF-539, with OVCAR-8, with HOP-62, in the test with RPMI-8226 and in the test with TK-10 was > 100 µM (inactive) in each case. Moreover, the GI50 was > 100 µM (inactive) with EKVX; > 100 µM with HCT-15; > 100 µM (inactive) in the test with SF-268; > 100 µM (inactive) in the test on HT-29; > 100 µM (inactive) in the test with 786-0.
Take `CC(=O)OCC12CC(CC1OC(C)=O)c1ccccc12` (stereo not drawn): the GI50 in the test on SF-295, in the test on Malme-3M, in the test with CAKI-1, with M14, in the test with DMS-114 and in the test with SW-620 was > 100 µM (inactive) in each case. Besides, the GI50 is > 100 µM (inactive) in the test on CCRF-CEM; > 100 µM (inactive) with OVCAR-8; > 100 µM (inactive) with HOP-62; > 100 µM (inactive) in the test with RPMI-8226; > 100 µM (inactive) in the test with TK-10; > 100 µM in the test on HCT-15. Also, the GI50 with SF-268, in the test on HT-29 and in the test with 786-0 was > 100 µM (inactive) each time.
Turning to `CCOC(=O)C(C(=O)c1ccccc1-c1ccccc1C(=O)O)=P(c1ccccc1)(c1ccccc1)c1ccccc1`, the GI50 in the test with SF-295 was 31.9 µM (inactive); in the test with Malme-3M, 22.4 µM (inactive); in the test on M14, 38.5 µM (inactive); in the test with DMS-114 it was 20.1 µM (inactive); in the test on SW-620, 31.3 µM (inactive); in the test on CCRF-CEM, 20.7 µM (inactive). The GI50 in the test with SF-539 is 18.9 µM (inactive); in the test on OVCAR-8, 16.9 µM (inactive); with HOP-62, 18.8 µM (inactive); in the test with RPMI-8226, 13.9 µM (inactive); with TK-10, 80.4 µM (inactive); in the test on EKVX, 32.9 µM (inactive). For the same compound, the GI50 with HCT-15 is 25.7 µM; with SF-268, 41.6 µM (inactive); in the test with HT-29, 25 µM (inactive); in the test on 786-0 it was 37.8 µM (inactive).
With `COC1(OC)N=C(N)C2(C#N)C(C)CC(=O)N(N(C)C)C12C#N` (stereo not drawn), the GI50 in the test with SF-295, in the test on Malme-3M, in the test on CAKI-1, with M14, with T47D and with SW-620 was > 100 µM (inactive) in each case. Besides, the GI50 with Hs-578T, in the test with CCRF-CEM, with SF-539, in the test on OVCAR-8, in the test on HOP-62 and in the test on RPMI-8226 was > 100 µM (inactive) in each case. Besides, the GI50 in the test on TK-10 was > 100 µM (inactive); in the test with NCI-H522, > 100 µM (inactive); in the test with EKVX it was > 100 µM (inactive); in the test on HCT-15, > 100 µM; in the test with SF-268, > 100 µM (inactive); in the test on HT-29 it was > 100 µM (inactive). The GI50 in the test with 786-0 is > 100 µM (inactive).
Take `CC(C)(C)OC(=O)NCCCCC(NC(=O)c1ccccc1)C(N)=O` (stereo not drawn): the GI50 with SF-295, in the test on Malme-3M, in the test on CAKI-1, in the test with M14, in the test on T47D and in the test on SW-620 was > 100 µM (inactive) in each case. For the same compound, the GI50 with Hs-578T, with CCRF-CEM, in the test with SF-539, in the test with OVCAR-8, in the test with HOP-62 and in the test on RPMI-8226 was > 100 µM (inactive) each time. Further, the GI50 in the test with TK-10 was > 100 µM (inactive); in the test with NCI-H522, > 100 µM (inactive); in the test on EKVX it was > 100 µM (inactive); in the test with HCT-15, > 100 µM; in the test on SF-268, > 100 µM (inactive); in the test with HT-29, > 100 µM (inactive). For the same compound, the GI50 with 786-0 is > 100 µM (inactive).
With `COc1cc2c(c(OC)c1OC)-c1ccc(OC)c(=O)cc1C(NC(=O)CCCCCNc1ccc(N=[N+]=[N-])cc1[N+](=O)[O-])CC2` (stereo not drawn), the GI50 with SF-295 is < 0.0118 µM (active); with Malme-3M, < 0.01 µM (active); in the test with CAKI-1 it was 0.299 µM (active); with M14 it was < 0.01 µM (active); in the test on T47D, 20.5 µM (inactive); with SW-620 it was < 0.01 µM (active). The GI50 with Hs-578T, in the test on CCRF-CEM, in the test with SF-539, in the test with OVCAR-8, in the test on HOP-62 and in the test with RPMI-8226 was < 0.01 µM (active) each time. Further, the GI50 is 0.0426 µM (active) in the test on TK-10; < 0.01 µM (active) in the test on NCI-H522; < 0.0136 µM (active) in the test on EKVX; 0.0418 µM in the test on HCT-15; < 0.01 µM (active) in the test on SF-268; < 0.01 µM (active) in the test on HT-29. The GI50 with 786-0 was < 0.01 µM (active).
